Results on six molecules are retold here after patent US4241053A, “Novel nitrosourea compounds and process for preparing the same” (Tanabe Seiyaku Co., Ltd., priority 1978, dated 1980).

Each structure is given as a SMILES string. Some results are limits rather than exact numbers.

The nature of data set [1]: Preventive effect against the growth of Ehrlich ascites tumor (Method A). It is filed as in vivo, mice (female ICR). Conditions: mouse, in vivo, ip; maximum dose with 100% inhibition of Ehrlich ascites tumor without causing death; unit from dose column; read-out: MTD (Maximum Tolerated Dose). As to the method:
(§1) (A) Preventive effect against the growth of Ehrlich ascites tumor:
(§2) 10^6 tumor cells of Ehrlich ascites carcinoma were inoculated intraperitoneally into a group of five femal mice (ICR mice, body weight: 19-23 g). A test compound was dissolved in a physiological saline solution [In the case where CCNU was employed as the test compound, said compound was suspended in a physiological saline solution containing 0.1% NIKKOL HCO-60 (trademark; a surface active agent manufactured by Nikko Chemicals Co. Ltd.)] and administered intraperioneally to the mice. The administration of the test compound was begun 24 hours after the inoculation of the tumor cells and performed once a day for 5 days. The volume of ascites in the treated mice were measured after 7 days of the experiment.
(§3) ^a T = the average volume of ascites in the treated mice
(§4) C = the average volume of ascites in the untreated mice (control group of
(§5) 100% inhibition for the growth of Ehrlich ascites tumor in mice without
(§6) causing the death of said mice)
(§7) 100% inhibition for the growth of said ascites tumor)
(§8) ^e Therapeutic index = MTD/MED
(§9) *the number of mice died/the number of mice used

Data set [2] deals with Ehrlich ascites carcinoma. The data set is described as above. It is filed as in vivo, mice (female ICR). To be noted: for inhibition in vivo at 3.12 mg/kg: 3.12 mg/kg/day i.p.; for inhibition in vivo at 6.25 mg/kg: 6.25 mg/kg/day i.p.; for inhibition in vivo at 12.5 mg/kg: 12.5 mg/kg/day i.p.; for inhibition in vivo at 1.56 mg/kg: 1.56 mg/kg/day i.p.; for inhibition in vivo at 200 mg/kg: 200 mg/kg/day i.p.; for minimal effective dose: minimum dose with 100% inhibition of ascites tumor, unit from dose column, read-out: MED (Minimum Effective Dose); for inhibition in vivo at 0.78 mg/kg: 0.78 mg/kg/day i.p.; for inhibition in vivo at 0.09 mg/kg: 0.09 mg/kg/day i.p.; for inhibition in vivo at 0.19 mg/kg: 0.19 mg/kg/day i.p.; for inhibition in vivo at 0.39 mg/kg: 0.39 mg/kg/day i.p.; for inhibition in vivo at 25 mg/kg: 25 mg/kg/day i.p. The procedure: as §1, §2, §3, §4, §5, §6, §7, §8, §9

A further data set relates to Leukemia L-1210. The data set can be described thus: Effect on the life span of mice implanted with leukemic cells of L-1210 (Method B). Conditions: Mus musculus, L1210, ip, once a day for 5 days; for ILS at 6.25 mg/kg / responders at 6.25 mg/kg: 6.25 mg/kg/day i.p.; for ILS at 25 mg/kg / responders at 25 mg/kg: 25 mg/kg/day i.p.; for ILS at 50 mg/kg / responders at 50 mg/kg: 50 mg/kg/day i.p. It is filed as in vivo, mice (male BDF1). As to the method:
(B) Effect on the life span of mice implanted with leukemic cells of L-1210:
10^5 leukemic cells of L-1210 were inoculated intraperitoneally into a group of four or six male mice (BDF1 mice, body weight: 19-23 g). A test compound was dissolved in a physiological saline solution and administered intraperitoneally to the mice. The administration of the test compound was begun 24 hours after the inoculation of the leukemic cells and performed once a day for 5 days. The survival days of the treated mice were observed.
^a T = the mean survival days of the treated mice
C = the mean survival days of the untreated mice (control group of mice)
^b ILS(Increase in Life Span) =-
^c 60day survivors = the number of mice survived for 60 days/the

The mark [3] stands for this setting: 100 mg/kg/day i.p., once a day for 5 days.
The mark [4] stands for this setting: Mus musculus, Ehrlich, ip, 168 h, once a day for 5 days, read-out: Inhibition ratio.
Setting [5] is: Mus musculus, Ehrlich, ip, 168 h, 50 mg/kg/day i.p., once a day for 5 days, read-out: Inhibition ratio.
Setting [6] is: 400 mg/kg/day i.p., once a day for 5 days.
[7] abbreviates: Mus musculus, Ehrlich, ip, 168 h.
The mark [8] stands for this setting: 120 h, read-out: ILS (Increase in Life Span).
Setting [9] is: 1440 h, read-out: 60-day survivors (mice survived for 60 days/mice used) (converted).

In the case of `O=NN(CCCl)C(=O)NC1CCCCC1` [CCNU, 1-(2-chloroethyl)-1-nitroso-3-cyclohexylurea, reference compound], in data set [1], the maximal tolerated dose (MTD) (commonly the highest dose tested that stayed within the study's limit of toxicity) at 168 h turned out to be 50 mg/kg/day. For the same molecule, in data set [2] (setting [3]), the “Toxic (number of mice died/number of mice used)” value is given as 5/5. In data set [2] (setting [4]), the inhibition in vivo at 3.12 mg/kg was 21.1%, the inhibition in vivo at 6.25 mg/kg worked out at 33.3% and the inhibition in vivo at 12.5 mg/kg came to 100%. In data set [2] (setting [5]), the inhibition in vivo at 50 mg/kg came out at 100%.

Regarding `COC(C)CN(C(=O)N(CCCl)N=O)C1O[C@H](CO)[C@@H](O[C@H]2O[C@H](CO)[C@@H](O)[C@H](O)[C@H]2O)[C@H](O)[C@H]1O` (stereo partly drawn) [Compound 1, 1-(2-chloroethyl)-1-nitroso-3-(2-methoxy-n-propyl)-3-[O-α-D-glucopyranosyl-(1→4)-D-glucopyranosyl]urea], the MTD at 168 h in data set [1] was found to be 200 mg/kg/day. For the same molecule, in data set [2] (setting [6]), the “Toxic (number of mice died/number of mice used)” value is listed as 4/5. In addition, in data set [2], the “Therapeutic index (MTD/MED)” value was 64. Further, in data set [2] (setting [4]), the inhibition in vivo at 1.56 mg/kg was 4.4%, the inhibition in vivo at 3.12 mg/kg amounted to 100%, the inhibition in vivo at 12.5 mg/kg stood at 100% and the inhibition in vivo at 200 mg/kg came out at 100%. The inhibition in vivo at 50 mg/kg in data set [2] (setting [5]) amounted to 100%. The minimal effective dose in data set [2] (setting [7]) stood at 3.12 mg/kg/day.

With `COCC(C)N(C(=O)N(CCCl)N=O)C1O[C@H](CO)[C@@H](O[C@H]2O[C@H](CO)[C@@H](O)[C@H](O)[C@H]2O)[C@H](O)[C@H]1O` (stereo partly drawn) [Compound 2, 1-(2-chloroethyl)-1-nitroso-3-(1-methyl-2-methoxy-ethyl)-3-[O-α-D-glucopyranosyl-(1→4)-D-glucopyranosyl]urea], in data set [1], the MTD at 168 h was 200 mg/kg/day. Besides, the “Toxic (number of mice died/number of mice used)” value in data set [2] (setting [6]) is 2/5. In data set [2] (Ehrlich ascites tumor, greater than that of GANU), the “therapeutic index (M.T.D./M.E.D.) relative to that of GANU” value came to 4 times. In data set [2], the “Therapeutic index (MTD/MED)” value was determined as 128. Also, in data set [2] (setting [4]), the inhibition in vivo at 0.78 mg/kg is -8.6%, the inhibition in vivo at 1.56 mg/kg is 100%, the inhibition in vivo at 3.12 mg/kg was 100% and the inhibition in vivo at 12.5 mg/kg was determined as 100%. Also, the inhibition in vivo at 200 mg/kg in data set [2] (setting [4]) is 100%. Also, the inhibition in vivo at 50 mg/kg in data set [2] (setting [5]) was found to be 100%. Also, the minimal effective dose in data set [2] (setting [7]) was found to be 1.56 mg/kg/day. Besides, in the data set with Leukemia L-1210 (setting [8]), the ILS (usually the gain in survival time of treated over control animals, in per cent) at 6.25 mg/kg is 85.7%; the ILS at 25 mg/kg was greater than 604%; the ILS at 50 mg/kg was greater than 757%. In addition, in the data set on Leukemia L-1210 (120 h, 100 mg/kg/day i.p., read-out: ILS (Increase in Life Span)), the increase in lifespan (ILS) at 100 mg/kg was greater than 757%. In addition, in the data set with Leukemia L-1210 (setting [9]), the responders at 6.25 mg/kg is 0%, the responders at 25 mg/kg was 75% and the responders at 50 mg/kg is 100%. For the same molecule, the responders at 100 mg/kg in the data set with Leukemia L-1210 (1440 h, 100 mg/kg/day i.p., read-out: 60-day survivors (mice survived for 60 days/mice used) (converted)) is 100%.

Regarding `COCCN(C(=O)N(CCCl)N=O)C1OC[C@H](O)[C@H](O)[C@H]1O` (stereo partly drawn) [Compound 3, 1-(2-chloroethyl)-1-nitroso-3-(2-methoxyethyl)-3-(L-arabinopyranosyl)urea], the MTD at 168 h in data set [1] is 50 mg/kg/day. Also, the “Toxic (number of mice died/number of mice used)” value in data set [2] (setting [3]) is 3/5. The “Therapeutic index (MTD/MED)” value in data set [2] is on record as 128. For the same molecule, in data set [2] (setting [4]), the inhibition in vivo at 0.09 mg/kg turned out to be 13.5%, the inhibition in vivo at 0.19 mg/kg is 55.6%, the inhibition in vivo at 0.39 mg/kg was found to be 100% and the inhibition in vivo at 0.78 mg/kg is 100%. In data set [2] (setting [4]), the inhibition in vivo at 3.12 mg/kg was found to be 100% and the inhibition in vivo at 12.5 mg/kg was 100%. Further, the inhibition in vivo at 50 mg/kg in data set [2] (setting [5]) was 100%. For the same molecule, the minimal effective dose in data set [2] (setting [7]) is 0.39 mg/kg/day. In the data set on Leukemia L-1210 (setting [8]), the increase in life span (ILS) at 6.25 mg/kg came to 87.5%, the ILS at 25 mg/kg is greater than 733% and the ILS at 50 mg/kg was greater than 615%. For the same molecule, the ILS at 12.5 mg/kg in the data set on Leukemia L-1210 (120 h, 12.5 mg/kg/day i.p., read-out: ILS (Increase in Life Span)) is greater than 556%. Besides, in the data set with Leukemia L-1210 (setting [9]), the responders at 6.25 mg/kg is 0%, the responders at 25 mg/kg was 100% and the responders at 50 mg/kg is 83.3%. Moreover, the responders at 12.5 mg/kg in the data set on Leukemia L-1210 (1440 h, 12.5 mg/kg/day i.p., read-out: 60-day survivors (mice survived for 60 days/mice used) (converted)) is 66.7%.

On to `COCCN(C(=O)N(CCCl)N=O)C1OC[C@@H](O)[C@H](O)[C@H]1O` (stereo partly drawn) [Compound 10, 1-(2-chloroethyl)-1-nitroso-3-(2-methoxyethyl)-3-(D-xylopyranosyl)urea], for which the MTD at 168 h in data set [1] worked out at 25 mg/kg/day. In addition, in data set [2] (50 mg/kg/day i.p., once a day for 5 days), the “Toxic (number of mice died/number of mice used)” value is on record as 2/5. The “Therapeutic index (MTD/MED)” value in data set [2] stood at 64. In addition, the inhibition in vivo at 0.04 mg/kg in data set [2] (Mus musculus, Ehrlich, ip, 168 h, 0.04 mg/kg/day i.p., once a day for 5 days, read-out: Inhibition ratio) was found to be 2.1%. In data set [2] (setting [4]), the inhibition in vivo at 0.09 mg/kg was found to be 25%, the inhibition in vivo at 0.19 mg/kg is 89.6%, the inhibition in vivo at 0.39 mg/kg came to 100% and the inhibition in vivo at 1.56 mg/kg amounted to 100%. Moreover, the inhibition in vivo at 25 mg/kg in data set [2] (setting [4]) stood at 100%. The inhibition in vivo at 6.23 mg/kg in data set [2] (Mus musculus, Ehrlich, ip, 168 h, 6.23 mg/kg/day i.p., once a day for 5 days, read-out: Inhibition ratio) came to 100%. The minimal effective dose in data set [2] (setting [7]) came out at 0.39 mg/kg/day.

Regarding `COCCN(C(=O)N(CCCl)N=O)C1O[C@H](CO)[C@@H](O)[C@H](O)[C@@H]1O` (stereo partly drawn) [Compound 11, 1-(2-chloroethyl)-1-nitroso-3-(2-methoxyethyl)-3-(D-mannopyranosyl)urea], the maximum tolerated dose (MTD) at 168 h in data set [1] amounted to 400 mg/kg/day. Moreover, the “Toxic (number of mice died/number of mice used)” value in data set [2] (800 mg/kg/day i.p., once a day for 5 days) is listed as 5/5. Also, the “Therapeutic index (MTD/MED)” value in data set [2] was 64. Besides, in data set [2] (setting [4]), the inhibition in vivo at 1.56 mg/kg turned out to be 14%, the inhibition in vivo at 3.12 mg/kg worked out at 64%, the inhibition in vivo at 6.25 mg/kg was 100% and the inhibition in vivo at 25 mg/kg stood at 100%. Besides, the inhibition in vivo at 100 mg/kg in data set [2] (Mus musculus, Ehrlich, ip, 168 h, 100 mg/kg/day i.p., once a day for 5 days, read-out: Inhibition ratio) stood at 100%. The inhibition in vivo at 400 mg/kg in data set [2] (Mus musculus, Ehrlich, ip, 168 h, 400 mg/kg/day i.p., once a day for 5 days, read-out: Inhibition ratio) is 100%. The minimal effective dose in data set [2] (setting [7]) turned out to be 6.25 mg/kg/day.
